Data: patent US9464291B2, “Methods and compositions for the treatment of cancer” (University of South Alabama, priority 2012, dated 2016)
“Also recorded” adds a separate entry of the source. Starred links: 1 amine or outer side, 2 acyl side, 3 side chain; linkers in the order of their positions; H or OH if unused. Positions of bridges follow the written chain, without caps; N, C: chain ends. Non-standard residues stand in square brackets, D forms with d. Residues, ends and D or L forms follow the SMILES beside them. Chains are numbered I, II in the order given. Actinocin(9to1) = Cc1c2oc3c(C)ccc(C(=O)[*:1])c3nc-2c(C(=O)[*:2])c(N)c1=O; NMeV = CN[C@H](C(=O)O)C(C)C; Nle = CCCC[C@H](N)C(=O)O; Sar = CNCC(=O)O

Columns and labels:
[1] = test system: ERCC1; conditions: human ovarian cancer cells after cisplatin exposure; cited from earlier work
[2] = test system: OPN promoter; test: OPN promoter luciferase reporter assay in melanoma cell lines; format: cell-based, human; conditions: MDA-MB-435, MCC012A, MCC012F
Procedure: Empty pGL3 vector was used as control. Hedgehog ligands were added to the well 6 h prior to harvesting the cells (approximately 33 hr of initiation of transfection) for assay. Readings were normalized to total protein content. Each parameter was studied in triplicate and the experiment repeated at least 3 times. The data are represented as percent luciferase activity, which was derived as a percent of the relative light units in treated groups compared with the untreated groups.

[3] = test system: Gli1; test: GLI1 silencing by shRNA constructs in MDA-MB-435 cells, Western blot; format: cell-based, human
Procedure: To evaluate the functional effects of active Hedgehog signaling stable cell lines that were knocked down for GLI1 expression by RNA interference were generated. The efficacy of three shRNA constructs for silencing GLI1 expression was assessed.
Generation of Stable Transfectants—Endogenous GLI1 from MDA-MB-435 cells was silenced using shRNAs (short hairpin RNA) cloned into pSuperior.neo+gfp plasmid (OligoEngine, Seattle, Wash.) (TABLE 1). Introduction of double-stranded RNA has proven to be a powerful tool to suppress gene expression through a process known as RNA interference (P. A. Sharp, Genes Dev. 13, 139 (1999)). However, in some mammalian cells this can provoke a strong cytotoxic response (T. Hunter, T. Hunt, R. J. Jackson, H. D. Robertson, J. Biol. Chem. 250, 409 (1975)). This non-specific effect can be circumvented by use of synthetic short [21- to 22-nucleotide (nt)] interfering RNAs (siRNAs), which can mediate strong and specific suppression of gene expression (S. M. Elbashir et al., Nature 411, 494 (2001)). shRNAs included a target sequence sense strand, a short hairpin, and a target sequence antisense strand.
Western Blotting Analysis—Whole cell lysates were collected in Nonidet P-40 buffer (150 mM NaCl, 50 mM Tris, 1% Nonidet P-40). […] Secreted OPN was assessed by loading an equal quantity of protein from the serum-free conditioned medium. […]

[4] = test system: RAW264.7 cells; test: Osteoclast differentiation, TRAP assay, RAW264.7; format: cell-based, murine; conditions: DM supplemented with SHH (100 nM) or OPN (100 ng/ml) vs DM alone
Procedure: Cell lines—Human metastatic breast cancer cells, MDA-MB-231, were cultured in Dulbecco's Modified Eagle's Medium (DMEM/F12; Invitrogen, Carlsbad, Calif.), supplemented with 2 mM L-glutamine, 1 mM sodium pyruvate, 0.02 mM non-essential amino acids, 5% fetal bovine serum, FBS (Atlanta Biologicals, Norcross, Ga.), without antibiotics or antimycotics (cDME/F12). SUM1315 and SUM159 cells (DiMeo, T. A., et al. (2009) Cancer Res 69, 5364-5373) (Asterand, Detroit, Mich.) were cultured in DMEM/F12 supplemented with […] insulin, 5% FBS (Atlanta Biologicals) and either 10 ng/ml EGF or 1 ng/ml hydrocortisone, without antibiotics or antimycotics. The SUM1315 cells are derived from a metastasis in a patient with infiltrating ductal carcinoma; SUM159 cells were derived from a primary breast tumor with metaplastic ccarcinoma. RAW264.7 (ATCC, TIB 71) cells, a murine pre-osteoclastic line capable of differentiation and mineralization in culture (in presence of RANKL and MCSF), were grown in DMEM with L-glutamine (ATCC, 30-2002) supplemented with 10% FBS. A 2× differentiation medium (DM) was formulated for the RAW 264.7 cells comprising RAW264.7 growth medium supplemented with 20% FBS, RANKL (100 ng/ml) and M-CSF (40 ng/ml) (Matsubara, T., et al. J Bone Miner Res 25, 1068-1076). Conditioned media was harvested from breast cancer cells and mixed in a 1:1 ratio with double strength differentiation medium to assess the effect on osteoclast differentiation. 1×DM was used as control or wherever SHH (R & D Systems, Minneapolis, Minn.) or OPN (R & D Systems) was used alone. The medium on the RAW264.7 cells was replenished every 48 hours. In order to assess the effect of secreted Hh ligands, the neutralizing 5E1 antibody was used (Developmental Studies Hybridoma Bank, at the University of Iowa, Iowa). The amount of 5E1 antibody used for the studies was determined following titration of the antibody with respect to its effects on osteoclast differentiation. Medium was supplemented with 5E1 (2.5 μg/ml) and was changed on alternate days until the end of the experiment. The effect of OPN on osteoclast activity was assessed by transfecting an OPN shRNA-expressing construct on day 6 post-induction of differentiation. Fresh DM was added the following day and cells were allowed to grow for another 12 hours before termination of experiment. GLI1 expression was silenced in the SUM1315 cells using shRNA targeting GLI1 into pSuperior. gfp+neo (Oligoengine, Wash., USA). […]
Osteoclast differentiation and activity assays—Tartarate-resistant acid phosphatase (TRAP) assay was conducted for RAW 264.7 following the manufacturer's protocol (Sigma, St. Louis, Mo.). […] The percentage of area resorbed was calculated using the NIS-Elements BR. […]

[5] = test system: RAW264.7 cells; test: Osteoclast resorption activity, OAAS plates; format: cell-based, murine; conditions: DM supplemented with SHH (100 nM) or OPN (100 ng/ml)
Procedure: Osteoclast differentiation and activity assays—Tartarate-resistant acid phosphatase (TRAP) assay was conducted for RAW 264.7 following the manufacturer's protocol (Sigma, St. Louis, Mo.). This assay was indicative of the extent of differentiation. OAAS plates (Osteogenic Core Technologies, Choongnam, Republic of Korea) were utilized to measure osteoclastic activity. RAW 264.7 cells (25×103) were inoculated in 48-well plates. Cells were treated with serum-free conditioned media from breast cancer cells or 100 nM SHH or 100 ng/ml OPN on the following day. Media was changed every two days and the experiments were terminated either on day 6 (day 7 for knockdown experiments, with transfections being done on the sixth day). At the completion, cells were detached with 5% sodium hypochlorite and the wells were observed under a Nikon Eclipse TS 100 microscope at 10× magnification. […] The percentage of area resorbed was calculated using the NIS-Elements BR. 3.1 software.

| Molecule | effect on ERCC1 up-regulation [1] | further results |
| --- | --- | --- |
| CC[C@H](C)[C@@H]1NC(=O)CNC(=O)[C@@H]2Cc3c([nH]c4cc(O)ccc34)[S+]([O-])C[C@@H](NC(=O)CNC1=O)C(=O)N[C@@H](CC(N)=O)C(=O)N1C[C@H](O)C[C@H]1C(=O)N[C@@H]([C@@H](C)[C@@H](O)CO)C(=O)N2 (stereo in doubt) [α-amanitin] | blunted ERCC1 up-regulation |  |
| CCCC[C@@H](C=O)NC(=O)[C@H](CC(C)C)NC(=O)[C@H](CC(C)C)NC(C)=O [N-acetyl-leucyl-leucyl-norleucinal] (Ac-Leu-Leu-[Nle]-aldehyde) | blunted ERCC1 up-regulation |  |
| Cc1cc(C)c(/C=C2\C(=O)Nc3ccccc32)[nH]1 [SU5416] | blunted ERCC1 up-regulation |  |
| Cc1c2oc3c(C)ccc(C(=O)N[C@@H]4C(=O)N[C@H](C(C)C)C(=O)N5CCC[C@H]5C(=O)N(C)CC(=O)N(C)[C@@H](C(C)C)C(=O)O[C@@H]4C)c3nc-2c(C(=O)N[C@@H]2C(=O)N[C@H](C(C)C)C(=O)N3CCC[C@H]3C(=O)N(C)CC(=O)N(C)[C@@H](C(C)C)C(=O)O[C@@H]2C)c(N)c1=O [actinomycin D] (I: T[dV]P[Sar][NMeV] / II: T[dV]P[Sar][NMeV]; ester I:1-I:C, II:1-II:C; linker I:N-II:N via Actinocin(9to1)) | blunted ERCC1 up-regulation |  |
| [Cr] [chromium] | blunted ERCC1 up-regulation |  |
| C[C@@H]1C[C@@H]([C@H](O)CC2CC(=O)NC(=O)C2)C(=O)[C@@H](C)C1 [cycloheximide] | blunted ERCC1 up-regulation |  |
| CO[C@H]1[C@@H](OC)C[C@H](C)[C@@H](OC)C2=CC(=O)C=C(NC(=O)/C(C)=C/C=C\[C@H](OC)[C@@H](OC(N)=O)/C(C)=C/[C@@H]1C)C2=O [herbimycin A] | blunted ERCC1 up-regulation |  |
| CC(=O)N[C@@H](CSC(=O)[C@]1([C@@H](O)C(C)C)NC(=O)[C@H](C)[C@@H]1O)C(=O)O [lactacystin] | blunted ERCC1 up-regulation |  |
| [Pt] [platinum] | blunted ERCC1 up-regulation |  |
| C[C@H]1CC[C@]2(NC1)O[C@H]1C[C@H]3[C@@H]4CC[C@H]5C[C@@H](O)CC[C@]5(C)[C@H]4CC[C@]3(C)[C@H]1[C@@H]2C [tomatidine] |  | OPN promoter activity [2]: had no effect on the promoter activity; OPN promoter activity ([2]; listed as Tomatidine): had no effect on the promoter activity of OPN |
| GLI1 shRNA-2: shRNA construct targeting GLI1 mRNA sequence TCATCAACTCGCGATGCAC, position 325 (target site or template, no part of the molecule) |  | GLI1 silencing ([3]; shRNA cloned into pSUPERIOR): effective at silencing GLI1; also recorded: more effective GLI1 silencing; OPN expression ([3]; shRNA-transfected cells): decreased OPN expression |
| OPN: recombinant human osteopontin (R & D Systems) |  | numbers of TRAP stained multinucleate cells [4]: significant (p<0.005) increase; osteoclast activity (area resorbed) [5]: notably enhances (p<0.001) osteoclast activity |
| interleukin 1-α: interleukin 1-α (protein, UniProt P01583 113-271, looked up) Interleukin-1 alpha: SAPFSFLSNVKYNFMRIIKYEFILNDALNQSIIRANDQYLTAAALHNLDEAVKFDMGAYKSSKDDAKITVILRISKTQLYVTAQDEDQPVLLKEMPEIPKTITGSETNLLFFWETHGTKNYFTSVAHPNLFIATKQDYWVCLAGGPPSITDFQILENQA | blunted ERCC1 up-regulation |  |
